The results in this text go back to ChEMBL document CHEMBL4665917, “Optimization of Versatile Oxindoles as Selective PI3Kδ Inhibitors” (ACS Med Chem Lett, 2020).

Converted amounts (≈) assume the structure as drawn.

Series [1] can be described thus: Oral bioavailability in Beagle dog at 1 mg/kg. In kind it is ADME, organism-based, Canis lupus familiaris. The conditions noted are these: in vivo.
Series [2] has as its target Voltage-gated inwardly rectifying potassium channel KCNH2 (Homo sapiens, UniProt Q12809). Description: Inhibition of human ERG.
Series [3] is described as follows: Volume of distribution in Beagle dog at 0.5 mg/kg, iv or 1 mg/kg, po. It counts as ADME, organism-based, Canis lupus familiaris. The conditions noted are these: in vivo.
The nature of series [4]: Volume of distribution in Wistar-Han rat at 0.5 mg/kg, iv or 1 mg/kg, po. In kind it is ADME, organism-based. The conditions noted are these: in vivo.
The nature of series [5]: cells. The conditions noted are these: Homo sapiens, HeLa.
Series [6] can be described thus: Intrinsic clearance in Wistar-Han rat at 0.5 mg/kg, iv or 1 mg/kg, po. It counts as ADME, organism-based. The conditions noted are these: in vivo.
A short description of series [7]: Clearance in Wistar-Han rat at 0.5 mg/kg, iv or 1 mg/kg, po. It counts as ADME, organism-based. The conditions noted are these: in vivo.
Series [8] can be described thus: Unbound volume of distribution in Wistar-Han rat at 0.5 mg/kg, iv or 1 mg/kg, po. It counts as ADME, organism-based. The conditions noted are these: in vivo.
Series [9] is described as follows: Oral bioavailability in Wistar-Han rat at 1 mg/kg. In kind it is ADME, organism-based. The conditions noted are these: in vivo.
A short description of series [10]: Half life in Wistar-Han rat at 0.5 mg/kg, iv or 1 mg/kg, po. In kind it is ADME, organism-based. The conditions noted are these: in vivo.
In series [11] the target is T1, Cytochrome P450 2C8 (Homo sapiens, UniProt P10632).
T1 sequence (P10632 whole entry): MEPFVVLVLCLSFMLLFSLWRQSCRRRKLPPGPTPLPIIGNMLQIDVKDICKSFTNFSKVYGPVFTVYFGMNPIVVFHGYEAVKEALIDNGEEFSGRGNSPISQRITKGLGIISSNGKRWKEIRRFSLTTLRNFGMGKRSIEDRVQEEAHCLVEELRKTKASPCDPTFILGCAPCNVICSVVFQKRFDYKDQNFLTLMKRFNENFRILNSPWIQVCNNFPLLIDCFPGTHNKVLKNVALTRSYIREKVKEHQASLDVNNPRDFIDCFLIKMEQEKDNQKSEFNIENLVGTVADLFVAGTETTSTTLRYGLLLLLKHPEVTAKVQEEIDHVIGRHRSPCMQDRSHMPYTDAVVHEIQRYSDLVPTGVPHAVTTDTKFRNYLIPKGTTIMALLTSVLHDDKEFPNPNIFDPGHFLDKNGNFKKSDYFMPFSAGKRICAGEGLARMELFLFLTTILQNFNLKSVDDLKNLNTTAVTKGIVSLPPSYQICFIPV
Description: Inhibition of CYP2C8 (unknown origin). In kind it is ADME.

The target in series [12] is Voltage-dependent L-type calcium channel subunit alpha-1C (Homo sapiens, UniProt Q13936). In words: Inhibition of Cav1.2 (unknown origin).
A short description of series [13]: Apparent permeability in pig LLC-PK1 cells. It counts as ADME, cell-based, Sus scrofa.
The target in series [14] is Cytochrome P450 2C9 (Homo sapiens, UniProt P11712). Description: Inhibition of CYP2C9 (unknown origin). In kind it is ADME.
Chain of Cytochrome P450 2C9 (P11712 whole entry): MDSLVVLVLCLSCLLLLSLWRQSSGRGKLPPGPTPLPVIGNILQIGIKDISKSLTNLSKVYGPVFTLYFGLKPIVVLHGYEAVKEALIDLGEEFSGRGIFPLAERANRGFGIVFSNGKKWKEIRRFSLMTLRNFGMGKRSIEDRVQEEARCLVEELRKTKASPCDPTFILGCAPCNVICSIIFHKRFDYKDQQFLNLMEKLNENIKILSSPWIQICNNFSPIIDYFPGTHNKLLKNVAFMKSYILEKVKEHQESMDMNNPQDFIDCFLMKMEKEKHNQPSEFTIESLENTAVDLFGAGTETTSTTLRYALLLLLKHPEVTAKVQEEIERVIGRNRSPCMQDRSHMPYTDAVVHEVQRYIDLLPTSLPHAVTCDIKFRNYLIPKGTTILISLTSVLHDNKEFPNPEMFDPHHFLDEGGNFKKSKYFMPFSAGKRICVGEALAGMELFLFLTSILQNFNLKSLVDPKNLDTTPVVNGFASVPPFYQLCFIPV
The nature of series [15]: Clearance in Beagle dog at 0.5 mg/kg, iv or 1 mg/kg, po. It counts as ADME, organism-based, Canis lupus familiaris. The conditions noted are these: in vivo.
Series [16] in a line: Unbound volume of distribution in Beagle dog at 0.5 mg/kg, iv or 1 mg/kg, po. The conditions noted are these: in vivo. In kind it is ADME, organism-based, Canis lupus familiaris.
A short description of series [17]: Half life in Beagle dog at 0.5 mg/kg, iv or 1 mg/kg, po. In kind it is ADME, organism-based, Canis lupus familiaris. The conditions noted are these: in vivo.
Series [18] can be described thus: Intrinsic clearance in Beagle dog at 0.5 mg/kg, iv or 1 mg/kg, po. The conditions noted are these: in vivo. It counts as ADME, organism-based, Canis lupus familiaris.
In series [19] the target is Sodium channel protein type 5 subunit alpha (Homo sapiens, UniProt Q14524). Description: Inhibition of Nav1.5 (unknown origin).
Chain of Sodium channel protein type 5 subunit alpha (Q14524 whole entry): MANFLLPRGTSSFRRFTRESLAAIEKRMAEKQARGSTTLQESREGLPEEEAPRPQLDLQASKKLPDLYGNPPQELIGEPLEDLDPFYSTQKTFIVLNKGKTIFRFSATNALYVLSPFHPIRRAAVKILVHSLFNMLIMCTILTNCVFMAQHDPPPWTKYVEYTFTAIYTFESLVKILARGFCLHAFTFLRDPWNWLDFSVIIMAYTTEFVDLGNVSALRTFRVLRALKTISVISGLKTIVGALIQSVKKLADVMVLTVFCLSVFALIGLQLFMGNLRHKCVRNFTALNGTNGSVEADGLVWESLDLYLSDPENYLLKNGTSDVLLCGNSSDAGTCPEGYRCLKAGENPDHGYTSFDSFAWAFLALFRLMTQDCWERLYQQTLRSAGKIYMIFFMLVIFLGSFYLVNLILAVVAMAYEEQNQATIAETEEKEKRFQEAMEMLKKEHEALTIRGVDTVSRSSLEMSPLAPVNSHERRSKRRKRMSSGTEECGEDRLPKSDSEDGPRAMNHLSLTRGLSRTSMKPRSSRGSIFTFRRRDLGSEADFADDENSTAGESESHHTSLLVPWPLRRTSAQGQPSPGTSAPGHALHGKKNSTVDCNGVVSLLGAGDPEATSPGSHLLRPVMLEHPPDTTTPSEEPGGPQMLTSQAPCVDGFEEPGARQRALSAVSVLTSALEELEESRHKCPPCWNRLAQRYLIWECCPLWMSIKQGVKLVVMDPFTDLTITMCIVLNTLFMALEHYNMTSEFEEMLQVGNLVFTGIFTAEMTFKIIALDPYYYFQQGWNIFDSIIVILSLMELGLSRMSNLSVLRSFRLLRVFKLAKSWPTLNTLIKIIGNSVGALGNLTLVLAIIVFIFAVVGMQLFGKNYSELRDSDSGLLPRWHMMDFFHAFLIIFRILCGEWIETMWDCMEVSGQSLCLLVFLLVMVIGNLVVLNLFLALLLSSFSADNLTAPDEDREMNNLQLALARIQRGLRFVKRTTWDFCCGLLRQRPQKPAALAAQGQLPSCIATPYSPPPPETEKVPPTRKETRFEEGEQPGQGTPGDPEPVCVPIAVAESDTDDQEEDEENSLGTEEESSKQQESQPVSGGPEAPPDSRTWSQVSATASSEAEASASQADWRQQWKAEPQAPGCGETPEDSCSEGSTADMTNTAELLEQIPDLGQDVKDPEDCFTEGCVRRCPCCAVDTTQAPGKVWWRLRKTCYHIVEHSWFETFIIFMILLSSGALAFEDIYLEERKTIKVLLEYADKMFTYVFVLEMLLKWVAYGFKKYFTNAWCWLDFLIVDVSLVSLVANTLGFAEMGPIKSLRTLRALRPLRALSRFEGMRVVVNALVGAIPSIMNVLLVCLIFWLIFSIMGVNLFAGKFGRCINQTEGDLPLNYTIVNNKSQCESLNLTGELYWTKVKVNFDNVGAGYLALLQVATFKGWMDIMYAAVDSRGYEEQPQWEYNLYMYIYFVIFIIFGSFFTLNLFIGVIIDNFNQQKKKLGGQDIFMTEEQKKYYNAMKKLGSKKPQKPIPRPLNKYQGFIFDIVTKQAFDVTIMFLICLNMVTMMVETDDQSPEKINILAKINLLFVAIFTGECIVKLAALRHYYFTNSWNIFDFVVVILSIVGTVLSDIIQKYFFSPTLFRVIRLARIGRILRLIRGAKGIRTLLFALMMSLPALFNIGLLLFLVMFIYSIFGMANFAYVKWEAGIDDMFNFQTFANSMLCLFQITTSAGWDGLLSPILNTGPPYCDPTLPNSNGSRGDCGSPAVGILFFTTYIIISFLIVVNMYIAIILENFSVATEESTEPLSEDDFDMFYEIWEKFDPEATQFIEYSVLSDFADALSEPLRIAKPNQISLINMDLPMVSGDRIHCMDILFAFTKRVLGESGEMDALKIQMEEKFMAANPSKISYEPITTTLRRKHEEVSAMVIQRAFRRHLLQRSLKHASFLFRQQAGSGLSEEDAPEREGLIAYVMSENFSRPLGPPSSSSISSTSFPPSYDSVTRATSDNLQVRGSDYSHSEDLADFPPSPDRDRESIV
The target in series [20] is Cytochrome P450 2D6 (Homo sapiens, UniProt P10635). In words: Inhibition of CYP2D6 (unknown origin). In kind it is ADME.
Chain of Cytochrome P450 2D6 (P10635 whole entry): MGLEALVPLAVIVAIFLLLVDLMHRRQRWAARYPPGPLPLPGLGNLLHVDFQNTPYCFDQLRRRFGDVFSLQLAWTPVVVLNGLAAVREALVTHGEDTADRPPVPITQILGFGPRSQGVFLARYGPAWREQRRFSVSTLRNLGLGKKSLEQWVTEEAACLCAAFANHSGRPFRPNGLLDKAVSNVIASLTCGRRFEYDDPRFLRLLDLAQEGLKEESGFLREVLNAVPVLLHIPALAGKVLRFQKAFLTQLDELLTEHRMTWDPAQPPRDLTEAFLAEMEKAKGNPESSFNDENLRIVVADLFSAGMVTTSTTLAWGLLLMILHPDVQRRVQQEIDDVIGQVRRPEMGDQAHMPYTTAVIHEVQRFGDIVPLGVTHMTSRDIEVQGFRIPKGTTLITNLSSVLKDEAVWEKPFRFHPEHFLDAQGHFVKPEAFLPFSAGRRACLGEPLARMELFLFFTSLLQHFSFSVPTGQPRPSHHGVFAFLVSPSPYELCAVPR
Series [21] in a line: AUC in rat at 200 mg/kg. Also noted: dose 200 mg/kg. The conditions noted are these: in vivo. It counts as ADME, organism-based.
Series [22] can be described thus: Solubility of the compound at pH 7. In kind it is physicochemical. The conditions noted are these: buffer.
Series [23] concerns the target Cytochrome P450 3A4 (Homo sapiens, UniProt P08684). In words: Inhibition of CYP3A4 (unknown origin). In kind it is ADME.

Chain of Voltage-gated inwardly rectifying potassium channel KCNH2 (Q12809 whole entry): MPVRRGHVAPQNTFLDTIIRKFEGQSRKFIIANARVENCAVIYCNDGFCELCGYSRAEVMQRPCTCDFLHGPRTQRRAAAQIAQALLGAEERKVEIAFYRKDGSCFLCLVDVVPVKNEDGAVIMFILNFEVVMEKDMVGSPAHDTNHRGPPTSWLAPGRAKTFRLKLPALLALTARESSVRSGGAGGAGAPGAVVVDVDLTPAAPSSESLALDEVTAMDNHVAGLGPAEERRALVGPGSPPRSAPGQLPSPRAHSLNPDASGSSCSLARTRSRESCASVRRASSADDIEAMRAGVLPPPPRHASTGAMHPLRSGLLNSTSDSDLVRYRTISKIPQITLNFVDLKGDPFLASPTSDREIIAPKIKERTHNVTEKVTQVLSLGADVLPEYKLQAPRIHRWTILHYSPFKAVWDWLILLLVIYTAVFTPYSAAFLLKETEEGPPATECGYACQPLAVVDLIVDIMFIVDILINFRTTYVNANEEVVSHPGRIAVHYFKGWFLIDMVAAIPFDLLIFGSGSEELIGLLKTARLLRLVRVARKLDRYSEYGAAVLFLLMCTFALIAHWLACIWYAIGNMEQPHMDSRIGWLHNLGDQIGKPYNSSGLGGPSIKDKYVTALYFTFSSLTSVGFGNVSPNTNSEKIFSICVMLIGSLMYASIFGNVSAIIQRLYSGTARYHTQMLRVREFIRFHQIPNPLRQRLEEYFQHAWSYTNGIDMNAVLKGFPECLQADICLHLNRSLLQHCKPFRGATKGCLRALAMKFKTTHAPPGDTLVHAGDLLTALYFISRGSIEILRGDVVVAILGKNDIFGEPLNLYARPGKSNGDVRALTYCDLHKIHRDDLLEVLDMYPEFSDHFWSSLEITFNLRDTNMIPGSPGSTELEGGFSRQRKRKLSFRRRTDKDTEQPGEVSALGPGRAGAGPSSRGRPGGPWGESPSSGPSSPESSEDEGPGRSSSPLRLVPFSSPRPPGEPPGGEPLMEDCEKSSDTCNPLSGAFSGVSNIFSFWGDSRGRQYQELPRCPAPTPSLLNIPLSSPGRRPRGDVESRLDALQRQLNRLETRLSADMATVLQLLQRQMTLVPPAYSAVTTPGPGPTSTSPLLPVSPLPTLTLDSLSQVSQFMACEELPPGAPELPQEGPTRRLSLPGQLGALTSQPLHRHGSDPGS
Chain of Cytochrome P450 3A4 (P08684 whole entry): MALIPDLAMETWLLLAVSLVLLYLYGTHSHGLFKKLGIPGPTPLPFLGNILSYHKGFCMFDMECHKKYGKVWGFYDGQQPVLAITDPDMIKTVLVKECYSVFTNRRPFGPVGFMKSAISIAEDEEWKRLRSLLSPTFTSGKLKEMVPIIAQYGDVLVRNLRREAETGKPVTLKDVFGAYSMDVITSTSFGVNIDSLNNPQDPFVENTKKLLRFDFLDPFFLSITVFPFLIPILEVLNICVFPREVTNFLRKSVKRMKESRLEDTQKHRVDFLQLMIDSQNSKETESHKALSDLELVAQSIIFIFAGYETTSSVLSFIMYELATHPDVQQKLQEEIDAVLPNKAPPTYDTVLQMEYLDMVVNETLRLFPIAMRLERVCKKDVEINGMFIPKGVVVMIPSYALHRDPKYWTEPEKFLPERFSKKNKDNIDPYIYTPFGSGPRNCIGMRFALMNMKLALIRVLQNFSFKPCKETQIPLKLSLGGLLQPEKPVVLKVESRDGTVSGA

For the molecule `Cc1ncc(-c2nc3c(-c4ccc5c(c4)[C@@]4(CCCN4C(=O)C4CC4)C(=O)N5C)ncnc3n2C)cn1`, the bioavailability in [1] is 82%; in series [9], 100%. Further, the half-inhibitory concentration (IC50) is more than 30 µM in [2]; 9.1 µM in [5]; more than 50 µM in [11]; more than 30 µM in [12]; more than 50 µM in series [14]; more than 30 µM in series [19]. In addition, the concentration for half-maximal inhibition (IC50) in series [20] and in series [23] was more than 50 µM in each case. In addition, the Vd in series [3] stood at 0.8 L/kg; in series [4], 1.4 L/kg. Also, the CL in [6] was found to be 130 mL/min/kg; in series [18], 14 mL/min/kg. Moreover, the clearance in series [7] was 22 mL/min/kg; in [15], 6.1 mL/min/kg. The Vdu in series [8] came out at 6.1 L/kg; in [16], 1.5 L/kg. For the same molecule, the half-life was 1.4 h in [10] and 2 h in series [17]. Further, the Papp in series [13] was 31 ×10⁻⁶ cm/s. In addition, in series [21], the area under the curve (AUC) is 490 µM·h. In series [22], this molecule gave a solubility of 140 µM (≈ 69.2 µg/mL).

One may read the bioavailability as dose-corrected exposure relative to a reference, in per cent. Low values mean poor availability, high ones good availability. As usually defined, the IC50 is the concentration at which inhibition is half-maximal. In general, half-life refers to how long it takes for the measured level to halve. High values mean slow decline, low ones rapid decline. The Papp is the rate of passage across a membrane or cell layer, normalised by area and donor concentration. Broadly, the AUC is the area under the concentration-time curve, a measure of exposure. A word on the solubility: it is the dissolved amount per volume that the medium holds. Low readings indicate a poorly soluble substance, high ones a readily soluble substance.
